Laboratory results taken from PMC10654507, “A cleavable chimeric peptide with targeting and killing domains enhances LPS neutralization and antibacterial properties against multi-drug resistant E. coli” (Communications Biology, 2023).
Read-outs that look alike come from different tables or passages of the source. Residues, ends and D or L forms follow the SMILES beside them.

Assays:
[1] = Serum stability in mouse serum (RP-HPLC); assay type: in vitro ADME; conditions: 25% mouse serum; for remaining at 0.5 h, 0.5 mM / remaining at 1 h, 0.5 mM / remaining at 2 h, 0.5 mM / remaining at 4 h, 0.5 mM / remaining rate in mouse serum / remaining at 8 h, 0.5 mM: peptide 0.5 mM, mean of three; for remaining at 0.5 h, 0.5 mM / remaining at 1 h, 0.5 mM / remaining at 2 h, 0.5 mM / remaining at 4 h, 0.5 mM / remaining at 8 h, 0.5 mM: read-out: remaining rate in mouse serum; for remaining rate in mouse serum / remaining at 8 h, 0.5 mM: 8 h; for peptide remained intact in mouse serum: range from 2 h to 8 h of incubation
Method: Serum stability of R7 and its parent-L7 was tested as previously described with minor modifications[46],[53]. Briefly, each peptide was added to the 25% mouse serum to a final concentration of 0.5 mM; 250 µL aliquots of samples were taken at 0, 0.5, 1, 2, 4 and 8 h, and mixed with 20 µL 15% trichloroacetic acid (TCA). The samples were incubated at 4 °C for 15 min and centrifuged for 10 min at 12,000 rpm. The supernatants were analyzed by RP-HPLC or inhibition zone method. Moreover, after incubation in serum for 2 h, R7 was analyzed by matrix assisted laser desorption/ionization-time of flight mass spectrometry (MALDI-TOF MS) and high-performance liquid chromatography-mass spectrometry (HPLC-MS), respectively.

[2] = test system: p65, p-p65, ERK1/2, p-ERK1/2 and IκBα; experiment: Western blotting of NF-κB and MAPK pathway proteins in lung tissues of LPS-challenged mice; assay type: in vivo, mouse; conditions: for IκBα/β-actin ratio / p-ERK1/2/ERK1/2 ratio / p-p65/p65 ratio: Supplementary Fig. 5b-d source data, lung tissues, peptide + LPS, mean; for ERK1/2 phosphorylation: lung tissues of 24 h, western blot
Method: Additionally, the lung tissues of 24 h were homogenized and suspended in […] buffer, and the protein levels of supernatants were quantified using a Bradford protein assay kit. A total of 30 μg proteins were analyzed on a sodium dodecyl sulfate-polyacrylamide gel electrophoresis gel and were immunoblotted onto PVDF membranes, followed by an incubation with the primary antibodies of p65, p-p65, extracellular signal-regulated kinase (ERK)1/2, p-ERK1/2 and IκBα overnight at 4 °C. After washing, the blots were incubated with the peroxidase conjugated goat-rabbit or goat-mouse antibodies. Relative protein expression levels were quantified by a densitometric measurement of chemiluminescence (ECL) reaction band. β-actin was used as the internal reference. […]
pathways in lung tissues.
LPS. a The protein levels of p65, p-p65, ERK1/2, p-ERK1/2, and IκBα in lungs were analyzed by western blotting. b Densitometric analysis of p-ERK1/2/ERK1/2 ratio. c. Densitometric analysis of p-p65/p65 ratio. d Densitometric analysis of IκBα/β-actin ratio. All data were analyzed with one-way ANOVA, and data are means ± SD (n = 3). p-values< 0.05 were considered significant. **, p < 0.01, […]
(1 picture or pasted object on this page, not shown here)

[3] = test system: LPS; assay type: in vivo, mouse; design: key: 1 represents a mouse death; 0 represents no death; conditions: Supplementary Fig. 3b source data, LPS challenge
Method: Supplementary Figure 3. Therapeutic eﬀicacy of cleavable chimeric peptide R7 in the mice
challenged with MDR E. coli or LPS After the intraperitoneal injection with MDR E. coli (a) or LPS
(b) at a concentration of LD100, the mice were treated with 7 μmol/kg R7 at 0.5 h and 8 h, respectively.
The mouse survival was recorded for 7 d. The mice injected with MDR E. coli/LPS or saline were used

[4] = test system: LPS; experiment: Lung injury score (H&E histology), LPS-challenged mice; assay type: in vivo, mouse; conditions: 7 μmol/kg pre-treatment, 24 h (implied by contrast with 12 h)
Method: Fig. 8 Effects of cleavable chimeric peptide R7 on lung injury in mice. […] Lung injury was analyzed histologically at 12 h or 24 h, respectively. a Histopathological images of lung sections after staining with hematoxylin and eosin (H&E). Images are presented at a magnification of 100×. b Pathological analysis of lung. Lung injury involves in inflammation (such as peribronchial, perivascular, intrabronchial, and pulmonary interstitial one), bronchial exudate, and alveolar septal thickening, respectively. The specific degree of lung injury of each mouse is assessed by Score 0 (asymptomatic), Score 1 (mild), Score 2 (moderate), and Score 3 (severe), respectively. c The number of counted infiltrated inflammatory cells within processed lung sections from (a). Data represent the mean ± SD of three independent experiments. Different lower-case letters indicate a significant difference between the two groups (p < 0.05).
Lung tissues were taken at 12 h and 24 h, respectively, washed with PBS, and fixed in 4% paraformaldehyde overnight. After dehydration in different concentrations of ethanol (including 75%, 85%, 90%, and 95%, respectively), the tissues were embedded in paraffin, sliced, and stained with hematoxylin. Observation was performed under a light microscope. The mice only injected with E. coli, LPS or PBS was regard as the negative or blank control.

[5] = test system: MDR E. coli CVCC195; experiment: Mouse survival, preventive treatment before MDR E. coli challenge; assay type: in vivo; conditions: 7 μmol/kg i.p. at 0 h, MDR E. coli CVCC195 0.5 × 10^9 CFU/mouse i.p. at 6 h; five mice/group
Method: A sepsis mouse model established in our laboratory was used to evaluate the prevention effect of peptides. […] The survival rate of mice was recorded for 7 days. The mice injected with saline were used as negative control.

[6] = test system: mouse red blood cells; experiment: Hemolytic activity; assay type: cell-based
Method: Blood was collected from the eyeballs of specific pathogen-free (SPF) ICR female mice (6-week-old) with an anticoagulant tube and centrifuged for 10 min (4 °C, 1500 rpm). After washing twice with 0.9% physiological saline, red blood cells were diluted to 8% suspension and added into the Eppendorf tube (100 μL); 2-fold peptide solutions dissolved in 0.9% physiological saline (100 μL) were then added into the tube, incubated at 37 °C for 1 h, and centrifugated at 4 °C for 5 min. The supernatant was pipetted into a 96-well plate and the UV absorbance was measured at 540 nm using a microplate reader. 0.1% Triton X-100 and physiological saline were used as positive and negative control, respectively. The hemolysis rate is calculated as follows: Hemolysis (%) = [(Abspeptide-Abssaline) / (Abs0.1% Triton X-100- Abssaline)] × 100[13].

[7] = event at day 2, one cell per mouse
[8] = event at day 3, one cell per mouse
[9] = event at day 7, one cell per entry
[10] = concentration 1 μg/ml (as headed), 37 °C, 1 h, absorbance 540 nm, 0.1% Triton X-100 = 100, mean, n = 3
[11] = concentration 2 μg/ml (as headed), 37 °C, 1 h, absorbance 540 nm, mean, n = 3
[12] = concentration 4 μg/ml (as headed), 37 °C, 1 h, absorbance 540 nm, mean, n = 3
[13] = concentration 8 μg/ml (as headed), 37 °C, 1 h, absorbance 540 nm, mean, n = 3
[14] = concentration 16 μg/ml (as headed), 37 °C, 1 h, absorbance 540 nm, mean, n = 3
[15] = concentration 32 μg/ml (as headed), 37 °C, 1 h, absorbance 540 nm, mean, n = 3
[16] = concentration 64 μg/ml (as headed), 37 °C, 1 h, absorbance 540 nm, mean, n = 3
[17] = concentration 128 μg/ml (as headed), 37 °C, 1 h, absorbance 540 nm, mean, n = 3

Structure (SMILES) | remaining at 0.5 h, 0.5 mM [1] [%] | remaining at 1 h, 0.5 mM [1] [%] | remaining at 2 h, 0.5 mM [1] [%] | remaining at 4 h, 0.5 mM [1] [%] | remaining rate in mouse serum [1] | remaining at 8 h, 0.5 mM [1] [%] | peptide remained intact in mouse serum [1] | IκBα/β-actin ratio [2] | p-ERK1/2/ERK1/2 ratio [2] | p-p65/p65 ratio [2] | ERK1/2 phosphorylation [2] | therapeutic efficacy, survival, single-animal event [3, 7] | therapeutic efficacy, survival, single-animal event [3, 8] | therapeutic efficacy, survival, single-animal event [3, 9] | lung injury score [4] [points] | mouse survival at 7 days [5] [%] | Hemolysis [6, 10] [%] | Hemolysis [6, 11] [%] | Hemolysis [6, 12] [%] | Hemolysis [6, 13] [%] | other results
CSCC[C@H](NC(=O)[C@H](CCCNC(=N)N)NC(=O)[C@H](Cc1c[nH]c2ccccc12)NC(=O)[C@H](C)NC(=O)[C@H](Cc1c[nH]c2ccccc12)NC(=O)[C@H](CCCNC(=N)N)NC(=O)[C@H](Cc1c[nH]c2ccccc12)NC(=O)[C@H](C)NC(=O)[C@H](CCCCN)NC(=O)[C@@H](N)Cc1ccccc1)C(=O)N[C@@H](CCCCN)C(=O)N[C@@H](CCCCN)C(=O)N[C@@H](CC(C)C)C(=O)N[C@@H](C)C(=O)N[C@@H](C)C(=O)N1CCC[C@H]1C(=O)N[C@@H](CO)C(=O)O [L7] (H-FKAWRWAWRMKKLAAPS-OH) | 74.5 | 62.7 | 25.3 | 6.01 | completely undetectable | 0.829 | 25.3 ~ 0.8% | 1.143 | 1.133 | 1.216 | not markedly attenuated | 1 | 1 | 0 | 6.3 | 60 | -0.1237 | 0.165 | -0.1856 | -0.6393 | hemolysis against mouse red blood cells ([6]; 128 μM): 0%; Hemolysis [6, 14]: 0.04126%; Hemolysis [6, 15]: -0.3506%; Hemolysis [6, 16]: -0.6805%; Hemolysis [6, 17]: -1.031%; Hemolysis ([6]; low concentration (0 ~ 32 μM)): no hemolysis
CSCC[C@H](NC(=O)[C@H](CCCNC(=N)N)NC(=O)[C@H](Cc1c[nH]c2ccccc12)NC(=O)[C@H](C)NC(=O)[C@H](Cc1c[nH]c2ccccc12)NC(=O)[C@H](CCCNC(=N)N)NC(=O)[C@H](Cc1c[nH]c2ccccc12)NC(=O)[C@H](C)NC(=O)[C@H](CCCCN)NC(=O)[C@H](Cc1ccccc1)NC(=O)[C@H](CCCNC(=N)N)NC(=O)[C@H](CCCNC(=N)N)NC(=O)[C@H](CCCCN)NC(=O)[C@H](CCCNC(=N)N)NC(=O)[C@H](CCCCN)NC(=O)[C@H](Cc1ccccc1)NC(=O)[C@H](Cc1ccccc1)NC(=O)[C@H](CO)NC(=O)[C@H](C)NC(=O)[C@H](CCCNC(=N)N)NC(=O)[C@@H](NC(=O)[C@H](CCCCN)NC(=O)[C@H](Cc1c[nH]c2ccccc12)NC(=O)[C@H](CCCNC(=N)N)NC(=O)CNC(=O)[C@H](CCC(N)=O)NC(=O)[C@@H](NC(=O)[C@@H](N)CCCNC(=N)N)C(C)C)C(C)C)C(=O)N[C@@H](CCCCN)C(=O)N[C@@H](CCCCN)C(=O)N[C@@H](CC(C)C)C(=O)N[C@@H](C)C(=O)N[C@@H](C)C(=O)N1CCC[C@H]1C(=O)N[C@@H](CO)C(=O)O [R7] (H-RVQGRWKVRASFFKRKRRFKAWRWAWRMKKLAAPS-OH) | 101 | 81.6 | 29.8 | 21.2 | ~ 20% | 21.7 | 29.8 ~ 21.7% | 1.322 | 1.134 | 0.775 | not markedly attenuated | 1 | 1 | 0 | 3.0 | 100 | -0.4331 | -0.2475 | -0.2475 | -0.1031 | Hemolysis [6, 14]: 0.495%; Hemolysis [6, 15]: 2.846%; Hemolysis [6, 16]: 6.991%; Hemolysis [6, 17]: 10.9301%; Hemolysis ([6]; low concentration (0 ~ 32 μM)): no hemolysis
